The text below walks through data of patent publication US10774082B2, “Quinazoline compound” (Astellas Pharma Inc., priority 2017, dated 2020).

In one assay the test system is NCI-H1373 cells. Nature of the assay: Anchorage-independent cell proliferation inhibitory action, NCI-H1373 spheroid three-dimensional culture. In kind it is cell-based, Human. The settings on record: read-out: IC50 (anchorage-independent cell proliferation inhibition). The gist of the method: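 KRAS G12C NCI-H1373 cells were grown as spheroids in low-attachment U-bottom wells and treated the next day with compound, six points from 1,000 to 0.3 nM final. After six days at 37°C, viability was read by CellTiter-Glo luminescence. IC50 was fitted by Sigmoid-Emax regression, with DMSO set as 0% and cell-free medium as 100% inhibition.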

Assay [1] addresses T1, KRAS G12C/SOS/c-Raf complex (Homo sapiens, UniProt P01116, G12C).
T1 construct: Biotinylated AviTag-KRAS G12C (amino acid region 1-185, GDP)
Nature of the assay: KRAS G12C/SOS/c-Raf complex formation inhibitory action (TR-FRET). It is filed as biochemical. The conditions noted are these: one hour at room temperature, read-out: IC50 (KRAS G12C/SOS/c-Raf complex formation inhibition). The gist of the method: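 Biotin-AviTag KRAS G12C (1-185, GDP-bound) was mixed with compound (4,000 to 4 nM stock dilutions), SOS (564-1049), GST-c-Raf (51-131) and GTP in pH 7.4 HEPES/NaCl/MgCl2/Tween buffer for 1 h at room temperature. Complex formation was read by TR-FRET with Eu-streptavidin and ULight-anti-GST (ex 337 nm, em 620/665 nm).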

Another assay deals with NCI-H1373 tumor. As to the kind of experiment: Antitumor effect in NCI-H1373 tumor-bearing mouse. The settings on record: 10 mg/kg orally once a day for 13 or 14 days. In kind it is in vivo. As to the method:
Evaluation of Antitumor Effect in Human KRAS G12C Mutation Positive Non-Small Cell Lung Cancer Strain NCI-H1373 Tumor-Bearing Mouse
A cell suspension prepared per 3.0×10^7/mL by suspending NCI-H1373 cells in PBS, an equivalent amount of Matrigel (Becton, Dickinson and Company) was added thereto, and the cell suspension was subcutaneously planted in a volume of 100 μL to male nude mice of 4-5 weeks old (CAnN.Cg-Foxnlnu/CrlCrlj (nu/nu), Charles River Laboratories Japan, Inc.). Approximately 2 weeks after planting, groups were divided so that tumor volume and body weight between the groups were almost equivalent to each other, and administration of the test compound was started from the next day. The test was conducted with five mice in a solvent group and five mice in a test compound administration group, and an aqueous solution of 6% 2-hydroxypropyl-β-cyclodextrin (Sigma-Aldrich Co. LLC) was orally administered to the solvent group and an aqueous solution of 6% 2-hydroxypropyl-β-cyclodextrin which the test compound (10 or 40 mg/kg) was mixed was orally administered to the test compound administration group. The administration was performed once a day for 13 or 14 days, and tumor diameter and volume were measured twice a week. For calculation of tumor volume, the following formula was used. [tumor volume (mm^3)]=[major diameter (mm) of tumor]×[minor diameter (mm) of tumor]^2×0.5
The tumor growth inhibition rate (%) by the test compound was calculated by setting the tumor volume of the test compound administration group on the day before the administration started as 100% inhibition, and the tumor volume of the solvent group on the last day of administration as 0% inhibition. In addition, in a case where the tumor volume of the test compound administration group was lower than the tumor volume on the day before the administration started, the tumor regression rate (%) of the test compound was calculated by setting the tumor volume on the day before the administration started as 0% regression, and the tumor volume 0 as 100% regression.

Setting [2] is: Homo sapiens, NCI-H1373, 144 h, NCI-H1373 spheroid, six days, CellTiter Glo.
Where [3] appears, read: NCI-H1373 spheroid, six days, CellTiter Glo.

Where two headings read alike, the source gives them in different places.

T1 sequence (P01116 1-185 isoform P01116-2 G12C, one chain of several): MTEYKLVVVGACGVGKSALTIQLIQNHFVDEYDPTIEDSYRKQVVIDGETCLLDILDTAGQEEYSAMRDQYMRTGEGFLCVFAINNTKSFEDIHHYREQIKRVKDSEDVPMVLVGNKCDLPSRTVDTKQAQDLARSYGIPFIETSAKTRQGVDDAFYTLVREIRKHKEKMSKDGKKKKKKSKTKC

For the molecule `C=CC(=O)N1CC2(CCN(c3nc(OC4CCN(C5CCOCC5)CC4)nc4c(OCC(F)(F)F)c(-c5c(C)ccc6[nH]ncc56)c(C=C)cc34)CC2)C1` (single isomer, unassigned) [Ex 39], the IC50 turned out to be 4.3 nM in the assay on NCI-H1373 cells (setting [2]) and 14 nM in assay [1].
On the same counts, the results for `C=CC(=O)N1CCN(c2nc(OC3CCN(C)CC3)nc3c(F)c(-c4c(C)ccc5[nH]ncc45)c(Cl)cc23)CC1` [Compound C, reference compound] are 320 nM and 68 nM.
On the same counts, the results for `C=CC(=O)N1CC2(CCN(c3nc(OC4CCN(C)CC4)nc4c(OCC)c(-c5c(C)ccc6[nH]ncc56)c(C5CC5)cc34)CC2)C1` [Ex 2] are 6.2 nM and 37 nM.
On the same counts, the results for `C=CC(=O)N1CC2(CCN(c3nc(OC4CCN(C)CC4)nc4c(OCC(F)F)c(-c5c(C)ccc6[nH]ncc56)c(C5CC5)cc34)CC2)C1` [Ex 3] are 4.7 nM and 29 nM.
With `C=CC(=O)N1CC2(CCN(c3nc(OC[C@@H]4CCCN4C)nc4c(OCC(F)F)c(-c5c(C)ccc6[nH]ncc56)c(C5CC5)cc34)CC2)C1` [Ex 4], the results for the IC50 (in the assay on NCI-H1373 cells (setting [2]); in assay [1]) were 3.4 nM and 35 nM, respectively.
On the same counts, the results for `C=CC(=O)N1CC2(CCN(c3nc(OC4CCN(CC)CC4)nc4c(OCC)c(-c5c(C)ccc6[nH]ncc56)c(C=C)cc34)CC2)C1` [Ex 7] are 11 nM and 33 nM.
On the same counts, the results for `C=CC(=O)N1CC2(CCN(c3nc(OC4CCN(C)CC4)nc4c(OCC)c(-c5c(C)ccc6[nH]ncc56)c(C=C)cc34)CC2)C1` [Ex 24] are 6.1 nM and 21 nM.
For the molecule `C=CC(=O)N1CC2(CCN(c3nc(OC4CCN(CCOC)CC4)nc4c(OCC(F)(F)F)c(-c5c(C)ccc6[nH]ncc56)c(C5CC5)cc34)CC2)C1` [Ex 25], the IC50 in assay [1] was determined as 48 nM.
Same read-out and setting: for `C=CC(=O)N1CC2(CCN(c3nc(OC4CCN(CCOC)CC4)nc4c(OCC(F)(F)F)c(-c5c(C)ccc6[nH]ncc56)c(C=C)cc34)CC2)C1` [Ex 26] the value was 41 nM; for `C=CC(=O)N1CC2(CCN(c3nc(OC4CCN(CCCOC)CC4)nc4c(OCC(F)(F)F)c(-c5c(C)ccc6[nH]ncc56)c(C5CC5)cc34)CC2)C1` [Ex 28], 38 nM.
On to `C=CC(=O)N1CC2(CCN(c3nc(OC4CCN(C5CCOCC5)CC4)nc4c(OCC(F)(F)F)c(-c5c(C)ccc6[nH]ncc56)c(C=C)cc34)CC2)C1` [Ex 30], for which the IC50 in the assay on NCI-H1373 cells (setting [2]) turned out to be 5.4 nM; in assay [1] it was 45 nM.
With `C=CC(=O)N1CC2(CCN(c3nc(OC[C@@H]4CCCN4C)nc4c(OC5CCC5)c(-c5c(C)ccc6[nH]ncc56)c(C=C)cc34)CC2)C1` [Example 15], the IC50 amounted to 14 nM in the assay with NCI-H1373 cells (Homo sapiens, NCI-H1373, 144 h) and 52 nM in assay [1].
On the same counts, the results for `C=CC(=O)N1CC2(CCN(c3nc(OC[C@@H]4CCCN4C)nc4c(OCC)c(-c5c(C)ccc6[nH]ncc56)c(C=C)cc34)CC2)C1` [Example 16] are 10 nM and 45 nM.
As for `C=CC(=O)N1CC2(CCN(c3nc(OC4CCN(CCOCC)CC4)nc4c(OCC(F)(F)F)c(-c5c(C)ccc6[nH]ncc56)c(C=C)cc34)CC2)C1` [Example 29], the results for the IC50 (with NCI-H1373 cells (setting [2]); in assay [1]) were 10 nM and 49 nM, respectively.
On the same counts, the results for `C=CC(=O)N1CC2(CCN(c3nc(OC4CCN(CCOC)CC4)nc4c(OCC(F)F)c(-c5c(C)ccc6[nH]ncc56)c(C5CC5)cc34)CC2)C1` [Example 32] are 7.1 nM and 39 nM.
With `C=CC(=O)N1CC2(CCN(c3nc(OC4CCN(C5COC5)CC4)nc4c(OCC(F)(F)F)c(-c5c(C)ccc6[nH]ncc56)c(C=C)cc34)CC2)C1` [Example 33], the results for the IC50 (in the assay on NCI-H1373 cells (setting [2]); in assay [1]) were 8.7 nM and 44 nM, respectively.
For the molecule `C=CC(=O)N1CC2(CCN(c3nc(OC4CCN(C5COC5)CC4)nc4c(OCC)c(-c5c(C)ccc6[nH]ncc56)c(C5CC5)cc34)CC2)C1` [Example 34], the IC50 in the assay on NCI-H1373 cells (setting [2]) was 7.5 nM; in assay [1], 36 nM.
Take `C=CC(=O)N1CC2(CCN(c3nc(OC4CCN(CCOC)CC4)nc4c(OCC(F)(F)F)c(-c5c(C)ccc6[nH]ncc56)c(C5CC5)cc34)CC2)C1` [Example 35]: the IC50 was found to be 2.5 nM in the assay on NCI-H1373 cells (setting [3]) and 17 nM in assay [1]. For the same molecule, the “Antitumor effect: tumor regression rate” value in the assay on NCI-H1373 tumor is reported as 72% regression.
On the same counts, the results for `C=CC(=O)N1CC2(CCN(c3nc(OC4CCN(CCOCC)CC4)nc4c(OCC(F)(F)F)c(-c5c(C)ccc6[nH]ncc56)c(C=C)cc34)CC2)C1` [Example 37] are 8.8 nM, 17 nM and 58% regression.
Regarding `C=CC(=O)N1CC2(CCN(c3nc(OC4CCN(CC(C)(C)O)CC4)nc4c(OCC(F)(F)F)c(-c5c(C)ccc6[nH]ncc56)c(C=C)cc34)CC2)C1` [Example 40], the IC50 is 5.1 nM in the assay on NCI-H1373 cells (setting [3]) and 15 nM in assay [1]. Moreover, the “Antitumor effect: tumor regression rate” value with NCI-H1373 tumor was 15% regression.
Consider `C=CC(=O)N1CC2(CCN(c3nc(N4CCN(C)CC4)nc4c(OCC(F)(F)F)c(-c5c(C)ccc6[nH]ncc56)c(C=C)cc34)CC2)C1` [Example 50], for which the IC50 in the assay on NCI-H1373 cells (setting [2]) was 16 nM; in assay [1], 50 nM.
For `C=CC(=O)N1CC2(CCN(c3nc(OC4CCN(C)CC4F)nc4c(OCC(F)(F)F)c(-c5c(C)ccc6[nH]ncc56)c(C=C)cc34)CC2)C1` (stereo not drawn) [Example 52], the IC50 in the assay on NCI-H1373 cells (setting [2]) amounted to 16 nM; in assay [1], 56 nM.
On the same counts, the results for `C=CC(=O)N1CC2(CCN(c3nc(OC4CCN(Cc5ccccn5)CC4)nc4c(OCC(F)(F)F)c(-c5c(C)ccc6[nH]ncc56)c(C=C)cc34)CC2)C1` [Example 56] are 21 nM and 63 nM.
As for `C=CC(=O)N1CC2(CCN(c3nc(N4CC(N(C)C)C4)nc4c(OCC(F)(F)F)c(-c5c(C)ccc6[nH]ncc56)c(C=C)cc34)CC2)C1` [Example 65], the IC50 in the assay on NCI-H1373 cells (setting [2]) is 27 nM; in assay [1] it was 46 nM.
